pIC50: −log10 of the molar value. “Also recorded” adds a separate entry of the source.
How the values were obtained:
[1] = system: CD22 positive Raji cells killed by anti-CD22 degron CAR T-cells; test: Cytolytic properties of anti-CD22 degron CAR T-cells after wash-out of Asunaprevir; details: 500 nM Asunaprevir, wash-out 48 h, 24 h or 0 h prior to cytotoxicity assay; Raji 3:1; FIGS. 8A and 8B
Method: A fraction of the cells is maintained under 500 nM of Asunaprevir (correspond to the no wash-out point).
After 24 h the cells are pelleted, the supernatant is collected for luciferase quantification.

[2] = system: T-cells; test: T-cell proliferation in presence of Asunaprevir; type: cell-based, human; details: 100 nM to 1 μM ASN; FIG. 9
Method: FIG. 9: Proliferation of T-cells in the presence of increasing concentrations of Asunaprevir (see example 5). The total number of cells at different days cultured in presence of 100 nM, 500 nM or 1000 nM relative to 0 nM ASN is presented. Data are shown as the median of PBMC from 2 donors done in duplicate.
T-cells were cultured in X-Vivo 15 (Lonza) supplemented with 5% human serum hAB (Gemini) and 20 ng/ml IL-2 (Miltenyi) at a density of 1×10^6 cells/ml in presence of various dose (0-1000 nM) of the Asunaprevir protease inhibitor.

[3] = system: Raji target cells killed by SWOFF anti-CD22 CAR T-cells (TRAC locus integration); test: Cytotoxicity of T-cells with SWOFF anti-CD22 CAR integrated at the TRAC locus against luciferase-expressing Raji cells, Asunaprevir dose response; type: cell-based, human
Text: Data are shown as median with 95% confidence intervals of triplicates per points. N=2, performed in triplicates.
T-cells were then passaged the day prior to the transfection/transduction at 1×10^6 cells/ml in complete media. On the day of transfection/transduction, the cells were de-beaded by magnetic separation (EasySep), washed twice in Cytoporation buffer T (BTX Harvard Apparatus, Holliston, Mass.), and resuspended at a final concentration of 28×10^6 cells/ml in the same solution.
The electroporated cells were then immediately transferred to a 12-well plate containing 1 ml of prewarmed X-vivo-15 serum-free media and incubated for 37° C. for 15 min. The cells were then plated at a concentration of 10,000 cells/well with AAV in a 20 μl total volume of serum-free media (MOI: 1×10^5 vg/cells) in 96-well round bottom plates. […] 100 pL of fresh complete media was then added. Six days after transduction, 0.5×10^6 cells were seeded in a G-Rex 24-well plate (Wilson Wolf) in 5 ml of complete X-vivo-15 media and cultivated for 11 days.
After 24 h, the cells are collected and mixed, and 100 ul of cells was used for luciferase quantification (OneGlo, Promega). The remainder of the cells were pelleted and resuspended in fresh X-vivo 15 media with 5% hAB serum, no 11-2 (supplemented with or without 1-500 nM Asunaprevir), and an additional 0.5×10^6 target cells were added.

[4] = system: anti-CD22 CAR T-cells co-cultured with Raji target cells; test: Cytokine profiling of anti-CD22 CAR T-cells co-cultured with Raji target cells in presence of Asunaprevir; type: cell-based, human; details: various concentrations of ASN, 24 hours co-culture with Raji; FIG. 10
Method: FIG. 10: Cytokine quantification after co-culture of anti-CD22 CAR T-cells with target cells as a function of Asunaprevir concentration (see example 6). Data are shown as the mean±SD of duplicates per points.
T-cells were co-cultured with Raji target cells in 12-well culture plates in the presence of various concentrations of ASN for 24 hours. Cells were spun down, and the supernatants were aliquoted and frozen. Cytokine levels in the supernatants were measured with LEGEND plex Human Th Cytokine panel (Biolegend).

[5] = system: degron CARs (anti-CD123, anti-CD22) with NS3 protease domain in primary human T-cells; test: Surface expression of C-terminal fusion degron CARs in primary human T-cells (flow cytometry, labeled recombinant CD22 or CD123); type: cell-based; details: 500 nM Asunaprevir for 48 h, FIG. 6
Text: FIG. 6: Experimental results obtained with T-cells endowed with the CARs of the present invention. 6A: Percentage of CAR positive T-cells (presentation of anti-CD123 CARs at the surface of the transduced cells) in presence or absence of the protease inhibitor Asunaprevir. 6B: Percentage of CAR positive T-cells (presentation of anti-CD22 CARs at the surface of the transduced cells) in presence or absence of the protease inhibitor Asunaprevir). Controls are T-cells endowed with CARs lacking controlled degradation moiety (high presentation of CARs at the surface of the transduced cells). The percentage of CAR positive cells is measured by flow cytometry. Experimental details are provided in example 2.
3-5 days post transduction T-cells were incubated with or without 500 nM Asunaprevir for 48 h. The proportion of T-cells expressing the CAR at their surface was then quantified using labeled recombinant protein CD22 or CD123 targeted by the CAR (LakePharma).

[6] = system: CD22 positive target cells (Raji) killed by degron CAR T-cells; test: Cytolytic properties of C-terminal fusion degron CAR T-cells against luciferase-expressing Raji cells with Asunaprevir; details: 500 nM Asunaprevir; T-cells:Raji 3:1; 3 consecutive days; FIG. 7
Method: Data are normalized using untransduced human primary T-cells.
After 24 h the cells were pelleted, the supernatant was collected for luciferase quantification and the pelleted cells were resuspended in fresh complete X-vivo (supplemented or not with 500 nM Asunaprevir) media and 0.5×10^6 target cells (CD22 positive cells) were added.

C=C[C@@H]1C[C@]1(NC(=O)[C@@H]1C[C@@H](Oc2ncc(OC)c3ccc(Cl)cc23)CN1C(=O)[C@@H](NC(=O)OC(C)(C)C)C(C)(C)C)C(=O)NS(=O)(=O)C1CC1 [Asunaprevir, asunaprevir]
CAR cytolytic properties after wash-out of Asunaprevir [1]: controlled by Asunaprevir in a reversible manner | proliferation of the T-cells [2]: no effects | viability of the T-cells [2]: no effects | CAR T-cells cytolytic properties (luciferase signal of target cells) ([3]; 1 to 500 nM Asunaprevir, T-cells:Raji 3:1, FIG. 14): controlled by addition of Asunaprevir | pIC50 ([3]; Homo sapiens, Raji, read-out: IC50 of control of CAR T-cells cytolytic properties): ~7.82 | cytokine production [4]: did not result in notable variations | CAR presentation at the surface, control CARs lacking the self-excising degron ([5]; control CARs): did not react | CAR presentation at the surface of the transduced T-cells population ([5]; degron CARs anti-CD123 / anti-CD22): could be controlled by Asunaprevir | CAR cytolytic properties (percentage of CD22 positive target cells killed) [6]: could be negatively controlled; also recorded: reduced

Source: patent US20200140560A1, “PROTEASE BASED SWITCH CHIMERIC ANTIGEN RECEPTORS FOR SAFER CELL IMMUNOTHERAPY” (CELLECTIS, priority 2017, published 2020)
